Assay results published in patent publication US7326809B2, “Salts of 4- or 5-aminosalicylic acid” (Antibe Therapeutics Inc., priority 2004, dated 2008).
Structures can show the parent of a compound that is named as a salt. Where two headings read alike, the source gives them in different places.

Key:
TNBS-induced colitis [1] = experiment: TNBS-induced colitis in rats: edema, MPO activity, body weight; assay type: in vivo, male, Wistar rats; details: every 12 h for 4 days, salt at 50% of the dose equimolar to mesalamine 50 mg/kg
Procedure: Colitis was induced in male, Wistar rats by intracolonic administration of TNBS, as outlined in Wallace et al. (1990), Am J Physiol. 258: G527-G534, incorporated herein by reference. Briefly, beginning 1 h later and continuing at 12 h intervals for 4 days, the rats were treated with vehicle (1% CMC), mesalamine (50 mg/kg), L-arginine (equimolar) or L-arginine salt of mesalamine (50% of the equimolar dose). Changes in body weight were recorded, as were incidences of mortality. At the end of the study, the colon was excised and the thickness of the bowel wall was measured with digital callipers, as an index of edema. Also, a sample of tissue was processed for measurement of myeloperoxidase (MPO) activity, as an index of granulocyte infiltration.

[2] = In vitro anti-oxidant assay with a coloured, stable free radical; assay type: biochemical; details: for % Free Radical Scavenging: in ethanol, means of quadruplicate experiments; for IC50: concentration that reduced the levels of the free radical by 50%, read-out: 50% Inhibitory Concentrations IC50
Procedure: One of the mechanisms through which mesalamine is thought to provide benefit in the treatment of inflammatory bowel disease is through scavenging of free radicals. Therefore, the anti-oxidant activity of mesalamine was compared to that of L-arginine salt of mesalamine and L-arginine. Anti-oxidant activity of the test drugs was measured in an in vitro assay that employs a coloured, stable free radical as outlined in Vaananen, P. M. et al. (1992) Inflammation 16: 227-240 and Smith, R. C. et al. (1987) Free Rad. Biol. Med. 3: 251-257, both incorporated herein by reference. Drugs with anti-oxidant activity reduce this reagent resulting in a change in colour, which can be detected spectrophotometrically. A range of concentrations of L-arginine salt of mesalamine, mesalamine and L-arginine, all prepared in ethanol, were tested and the concentration that reduced the levels of the free radical by 50% were calculated.

[3] = system: TNF-α, IFN-γ, IL-1, IL-2, IL-10, IL-12 p40, RANTES, COX-1, COX-2, eNOS, iNOS mRNA; experiment: mRNA expression (RT-PCR) of inflammatory cytokines and mediators in colon, TNBS-induced colitis in mice; assay type: in vivo; details: equimolar to mesalamine 50 mg/kg
Procedure: The same model was used as described above. In this example, the effects of mesalamine (50 mg/kg) were compared to those of equimolar doses of L-arginine salt of mesalamine. Tissues were processed for measurement of a number of genes for inflammatory cytokines and other mediators.
In particular, mRNA expression in mice of tumour necrosis factor-alpha (TNF-α), interferon gamma (IFN-γ), colonic interleukin (IL)-1, IL-2, IL-10, IL-12 p40, RANTES, cyclooxygenase (COX)-1, COX-2, constitutive endothelial nitric oxide synthase (eNOS), and inducible NOS (iNOS) was measured as described in Wallace et al. (1999) Gastroenterology 117: 557-566, incorporated herein by reference.
Briefly, reverse transcription-polymerase chain reaction (RT-PCR) was used to detect and quantify mRNA of the particular cytokine/chemokine/enzyme. Glyceraldehyde-3-phosphate dehydrogenase (GAPDH) was used as the “housekeeping gene” for mRNA expression (i.e., as an internal control). For each sample, the ratio of the amplification of the target gene to the amplification of GAPDH (expression of each is measured by performing densitometry on gels) was obtained. Comparisons were then made between the relative amplification (expression) of the target gene in tissues for the treatment groups in comparison to the expression in tissues from healthy controls. Thus, the data shown in the following FIGS. represent the relative expression of the target gene (normalized to GAPDH expression) as a ratio to the expression in healthy controls.

TNBS-induced colitis [4] = experiment: TNBS-induced colitis in mice: disease activity score and MPO activity; assay type: in vivo, Balb/c mice; details: oral every 12 h for 5 days, dose equimolar to mesalamine 50 mg/kg
Procedure: A standard experimental animal model of colitis induced by intracolonic administration of 2,4,6-trinitrobenzene sulfonic acid (TNBS) to mice is used in the following example. A detailed description of this model has been published (Santucci et al. (2003) Gastroenterology 124:1381-94) and is incorporated herein by reference. Briefly, 6-8 week old Balb/c mice were given TNBS intracolonically at a dose of 1.5 mg in 0.1 mL of 30% ethanol. The mice were randomized to the various treatment groups (n=6 per group). Beginning one hour later and continuing every 12 h for 5 days, the mice were treated orally with vehicle (1% carboxymethylcellulose (CMC)), mesalamine (50 mg/kg) or with an equimolar dose of L-arginine salt of mesalamine.
The mice were evaluated (blindly) on the final day of the study for the presence of diarrhea and fecal occult blood, and their body weights were measured. […] The mice were then sacrificed and a sample of the colon was excised for measurement of myeloperoxidase (MPO) activity, an indicia for granulocyte infiltration.

[5] = following oral ingestion of 500 mg; cited from earlier work

In the case of `N=C(N)NCCC[C@H](N)C(=O)O.Nc1ccc(O)c(C(=O)O)c1` [L-arginine salt of mesalamine, L-arginine salt of 5-aminosalicylic acid], the body weight loss (TNBS-induced colitis [1]) is reported as “superior to both mesalamine and L-arginine”, the “colitis-associated edema (thickness of the bowel wall)” value (TNBS-induced colitis [1]) is reported as “superior to both mesalamine and L-arginine” and the “myeloperoxidase (MPO) activity (granulocyte infiltration)” value (TNBS-induced colitis [1]) is reported as “superior to both mesalamine and L-arginine”. For the same compound, the “% Free Radical Scavenging” value ([2]; 0.03 mM) was 5.2%, the “% Free Radical Scavenging” value ([2]; 0.1 mM) was 23.9% and the “% Free Radical Scavenging” value ([2]; 0.3 mM) was 57.7%. For the same compound, the “% Free Radical Scavenging” value ([2]; 1 mM) was 96.3%, the “% Free Radical Scavenging” value ([2]; 3 mM) was 100% and the “% Free Radical Scavenging” value ([2]; 10 mM) was 100%. The “anti-oxidant potency relative to mesalamine” value ([2]; from IC50 values) was “about three-times more potent”, the “COX-1 mRNA expression” value ([3]; colonic) was “suppressed” and the “COX-2 mRNA expression” value ([3]; colonic) was “suppressed”. The “eNOS mRNA expression” value ([3]; colonic) was “suppressed”, the “iNOS mRNA expression” value ([3]; colonic) was “suppressed” and the “IL-10 mRNA expression” value [3] was “did not suppress”. The “expression of mRNA for several pro-inflammatory cytokines and chemokines” value [3] was “suppressed”, the “mRNA expression of inflammatory cytokines and other mediators, every endpoint (FIGS. 3 to 8)” value ([3]; normalized to GAPDH, ratio to healthy controls) was “superior to mesalamine in every endpoint” and the “myeloperoxidase (MPO) activity (granulocyte infiltration)” value (TNBS-induced colitis [4]; colon sample) was “superior to mesalamine alone in reducing MPO activity”. The disease activity score (TNBS-induced colitis [4]; 0 to 4 scale) was “superior to mesalamine alone in reducing the disease”.
With `Nc1ccc(O)c(C(=O)O)c1` [L-arginine salt of mesalamine, L-arginine salt of 5-aminosalicylic acid] the IC50 ([2]; listed as ATB-428) was 407 µM.
In the case of `N=C(N)NCCC[C@H](N)C(=O)O` [L-arginine], the “% Free Radical Scavenging” value ([2]; 0.03 mM) is reported as 0%, the “% Free Radical Scavenging” value ([2]; 0.1 mM) is reported as 0% and the “% Free Radical Scavenging” value ([2]; 0.3 mM) is reported as 0%. The “% Free Radical Scavenging” value ([2]; 1 mM) was 0%, the “% Free Radical Scavenging” value ([2]; 3 mM) was 0% and the “% Free Radical Scavenging” value ([2]; 10 mM) was 0%. For the same compound, the IC50 [2] was > 10000 µM, the anti-oxidant activity ([2]; concentrations of up to 10 mM) was “did not exhibit any anti-oxidant activity” and the “anti-oxidant activity (in words)” value ([2]; summary statement) was “very little anti-oxidant activity”. The “free radical scavenging effects (in words)” value ([2]; summary statement) was “no free radical scavenging effects”.
For `Nc1ccc(O)c(C(=O)O)c1` [Mesalamine, 5-aminosalicylic acid], the “luminal concentrations of mesalamine in the colon” value [5] is listed as 1 mM, the “% Free Radical Scavenging” value ([2]; 0.03 mM) is listed as 2.2% and the “% Free Radical Scavenging” value ([2]; 0.3 mM) is listed as 23.6%. For the same compound, the “% Free Radical Scavenging” value ([2]; 1 mM) was 50.3%, the “% Free Radical Scavenging” value ([2]; 3 mM) was 96.1% and the “% Free Radical Scavenging” value ([2]; 10 mM) was 100%. It also gave an IC50 [2] of 1250 µM.
